Data as given in patent publication US9480727B2, “Synthetic peptide for inhibiting expression of type 2 TNF receptor and use thereof” (TOAGOSEI CO., LTD., priority 2012, dated 2016).

Assays:
TNF-R1 [1] = experiment: TNF-R1 expression (immunofluorescence, flow cytometry) in mouse Neuro 2a cells; type: cell-based; details: Neuro 2a cells after retinoic acid induction, 5 μM peptide, two days; fluorescence intensity relative to control = 1 (FIG. 1)
Description: The activities of the two peptides synthesized in Example 1 above were tested with cultured cells of a mouse spinal cord, neuroblastoma cell line (Neuro 2a). The control group was supplied with no peptides. The test details are described below.
The Neuro 2a cell line was seeded in a culture dish of 6 cm diameter at a density of 8.5×10^4 cells/mL and incubated overnight in a general DMEM culture medium (with 10% FBS, 1% penicillin) at 37° C. in a CO2 incubator at 5% CO2.
After incubated overnight, the culture medium was replaced with a DMEM culture medium containing 2% FBS, 20 μM retinoic acid and 1% penicillin. […]
(§1) After completion of the incubation, cultured cells in each test group were collected and divided into certain test tubes in fractions having the same number of cells. By the immunofluorescence technique described below, the expression (presence) of TNF-R1 and TNF-R2 was then assessed in each test group (group supplied with no peptide, group supplied with Sample 1, group supplied with Sample 2). […]
(§2) The fluorescence intensities of cells were measured with a flow cytometer (a Millipore system product, Guava® easyCyte 8HT). For both TNF-R2 and TNF-R1, the fluorescence intensities are shown as relative values with the fluorescence intensities of TNF-R2 and TNF-R1 in the control group (group supplied with no peptide) being 1, respectively.

TNF-R1 [2] = experiment: TNF-R1 expression (immunofluorescence, flow cytometry) in human SK-N-SH cells; type: cell-based; details: SK-N-SH cells after retinoic acid induction, 5 μM peptide, two days; fluorescence intensity relative to control = 1 (FIG. 2)
Description: The activities of the two peptides synthesized in Example 1 above were tested with cultured cells of a human neuroblastoma cell line (SK-N-SH). The control group was supplied with no peptides. The test details are described below.
The SK-N-SH cell line was seeded in a 4 mL fraction in a culture dish of 6 cm diameter at a density of 1.5×10^5 cells/mL and incubated in a general DMEM culture medium (with 10% FBS, 2 mM L-glutamine, 50 unit/mL penicillin, and 50 μg/mL streptomycin) at 37° C. in a CO2 incubator at 5% CO2 over two nights. […]
as §1, with “same number of” for “same”
as §2

## MLPGLALLLLAAWTARA (listed as Homo sapiens) [Sample 1]
TNF-R1 [1]
  presence (expression) of TNF-R1 as compared with the control group: no significant change
TNF-R1 [2]
  presence (expression) of TNF-R1 as compared with the control group: no significant change

## MLPSLALLLLAAWTVRA (listed as Mus musculus) [Sample 2]
TNF-R1 [1]
  presence (expression) of TNF-R1 as compared with the control group: no significant change
TNF-R1 [2]
  presence (expression) of TNF-R1 as compared with the control group: no significant change
